Source: patent publication US10639296B2, “Methods to mitigate injury from radiation exposure” (priority 2009, dated 2020)
Read-outs that look alike come from different tables or passages of the source.

Legend:
Balb/c mice = details: 5 mg/kg i.p. 24 hours after 7 Gy
[1] = rapid peak and subsequent clearance; cited from earlier work
mice [2] = details: data not shown
C57BL/6 mice [3] = details: 6.5 Gy TBI; 5 mg/kg 72 h after the radiation; 12 days after radiation exposure; n=8
mice [4] = details: total body dose of 8 Gy; Mozobil I.P. 5 mg/kg single injection days later
Procedure: We exposed mice to radiation, total body dose of 8 Gy at a rate of approximately 1 Gy per minute. Subsequently, days later, we administered Mozobil [I.P.] at 5 mg/kg dose as a single injection. We monitored the test mice for lethality.

dogs = details: cited from earlier work
TNF-alpha = details: 30 days after 30 Gy; 5 mg/kg I.P. on day 7 and 9 post-irradiation; vs 30 Gy alone
Text: (§1) Cytokine concentrations were from multiple samples, n=3 or 4 from single mice: one control, one receiving radiation alone and one receiving combined drug and radiation.

TGF-beta = details: 30 days after 30 Gy; 5 mg/kg I.P. on day 7 and 9 post-irradiation; vs 30 Gy alone
Text: as §1

C57BL/6 mice [5] = details: for Median survival: 5 mg/kg I.P.
normal donors = details: cited from earlier work
C57BL/6 mice [6] = details: for cutaneous injury (skin reaction): 5 mg/kg I.P. twice, one week after radiation and 48 hours later
Procedure: We exposed the legs of mice to 25 or 30 Gy radiation at a dose rate of approximately 5 Gy per minute. Subsequently, one week later, we administered Mozobil [LP.] at 5 mg/kg dose followed by another Mozobil administration [5 mg/kg, I.P.] 48 hours later. We monitored the test mice for lesions relating to skin damage.
Skin damage to the hind leg of C57BL/6 mice was measured using a semi-quantitative scale (TABLE ONE).

hematopoietic stem cells = details: cited from earlier work
[7] = dogs after lethal dose of TBI, AMD-3100 mobilized peripheral blood mononuclear cells

c1cc(CN2CCCNCCNCCCNCC2)ccc1CN1CCCNCCNCCCNCC1 [plerixafor]
Median survival (Balb/c mice): 18 days | clearance of the drug after injection [1]: ≤ 24 h | Leg contraction (percent leg extension relative to the unirradiated leg) (mice [2]): significantly improved | number of endogenous spleen colonies (mean) (C57BL/6 mice [3]): 47±9 | survival (lethality) (mice [4]): significantly enhanced | tolerability (adverse effects) (dogs; dog, in vivo): well tolerated without noticeable adverse effects | Median days to neutrophil recovery (dogs; [7]): 9 days | Median days to platelet recovery (dogs; [7]): 25 days | lethality after total body irradiation (dogs; dogs): mitigates lethality | TNF-alpha in irradiated skin (TNF-alpha): significantly reduced | TGF-beta in irradiated skin (TGF-beta): significantly reduced | Survival at 30 days (C57BL/6 mice [5]; 5 mg/kg I.P. administered 24 h after radiation exposure): 0% | Survival at 30 days (C57BL/6 mice [5]; 5 mg/kg I.P. administered 48 h after radiation exposure): 14% | Survival at 30 days (C57BL/6 mice [5]; 5 mg/kg I.P. administered 72 h after radiation exposure): 69% | Median survival (C57BL/6 mice [5]; 48 h between radiation and drug): 18 days | Median survival (C57BL/6 mice [5]; 72 h between radiation and drug): > 30 days | mitigation from TBI-induced lethality (C57BL/6 mice [5]; given after total body irradiation): significant mitigation | side effects of single-dose administration (normal donors): very minor | cutaneous injury (skin reaction) (C57BL/6 mice [6]; 25 Gy, to day 60): soon resolved completely | cutaneous injury (skin reaction) (C57BL/6 mice [6]; 30 Gy, approximately day 60): had some hair loss but were otherwise normal | skin damage (lesions) (C57BL/6 mice [6]; legs, 25 or 30 Gy, 5 mg/kg one week later and again 5 mg/kg I.P. 48 hours later): significantly reduced | mobilization of hematopoietic stem cells from the bone marrow to the bloodstream (hematopoietic stem cells; mice, dogs, and humans): strong inducer | G-CSF-induced mobilization of HPCs (hematopoietic stem cells; mouse and human hematopoietic progenitor cells): synergistically augmented
